Where no end group is shown, it is not given here.
Key:
naive CD4+ T cells = experiment: In vitro iTreg differentiation (Foxp3+ of CD4+ cells); format: cell-based, mouse; settings: 10 μM, 72 h, n = 4
Protocol: C57BL/6 mice were sacrificed, and their spleens and peripheral lymph nodes were removed and gently dissociated into single-cell suspensions. Naive T cells were isolated using the Mouse CD4 Naive T Cell Isolation Kit (BioLegend, Stem Cell, or Thermo Fisher Scientific). Flow cytometry verified that the purity (CD4^+CD25^−CD62L^hi) of the enriched subpopulation was typically higher than 95%. All T cells were cultured using RPMI-1640 medium (Gibco) supplemented with 10% heat-inactivated fetal bovine serum (Gibco), 2 mM L-glutamine (Gibco), 10,000 units/mL of penicillin, 10,000 µg/mL of streptomycin, and 25 µg/mL of Gibco Amphotericin B (Thermo Fisher Scientific), 10 mM HEPES (Gibco), 1 mM Sodium pyruvate, MEM Non-Essential Amino Acids (Life Technologies) and 55 μM β-mercaptoethanol (Gibco). 0.1 million naive CD4^+ T cells were activated with plate-coated anti-CD3 (2.5 μg/ml; BD Biosciences) and soluble anti-CD28 (2 μg/ml; BD Biosciences) antibodies. The Th1 cell differentiation condition included recombinant murine (rm)IL-12 (10 ng/ml, PeproTech) and anti-IL-4 (10 μg/ml, BioLegend). The Th17 cell differentiation condition included rmIL-6 (10 ng/ml, PeproTech), rmTGF-β1 (5 ng/ml, PeproTech), rmIL-23 (10 ng/ml, PeproTech), anti-IL-4 (5 μg/ml, BioLegend) and anti-IFN-γ (10 μg/ml, eBioscience). The inducible T regulatory cell (iTreg) differentiation condition included rmTGF-β (5 ng/ml, PeproTech). 0.1 million naive CD8^+ T cells were activated with plate-coated anti-CD3 (10 μg/ml; BD Biosciences) and plate-coated anti-CD28 (10 μg/ml; BD Biosciences) antibodies. The Tc17 cell differentiation condition included rmIL-6 (10 ng/ml, PeproTech), rmTGF-β1 (2 ng/ml, PeproTech), rmIL-23 (25 ng/ml, PeproTech), rmIL1-β (5 ng/ml, PeproTech), and anti-IFN-γ (10 μg/ml, eBioscience). The Tc1 cell differentiation condition included rmIL-2 (5 ng/ml, PeproTech) and rm IL-12 (1 ng/ml, PeproTech). Different concentrations of Dleu2-17aa and scrPEP (Genscript) were added to the T cell culture from the beginning unless specified. Cells were cultured in U-bottom 96-well plates for 72 h and detected by flow cytometry.
For in vitro mouse T cell differentiation, after 72 h of induction, cells were activated for 4–6 h at 37 °C with the Cell Stimulation Cocktail (Thermo Fisher Scientific) if intracellular cytokine staining is needed, surface markers were stained in FACS buffer (PBS containing 2% FBS) for 30 min at 4 °C protected from light. Cells were then fixed and permeabilized with the Foxp3 Staining Buffer Set (eBioscience) or BD Cytofix/Cytoperm (BD Biosciences) and were stained with fluorescent antibodies. After washing, stained cells were assayed with an LSRFortessa (BD) flow cytometer, and data were analyzed with FlowJo software. Single-cell suspensions from EAE mouse spleen or CNS (day 16 post-immunization) were derived through mechanical separation and passage through a 70-μm filter (Fisherbrand) and analyzed using similar steps. For flow cytometry, antibodies against CD4 (clone GK1.5, 1:200), CD62L (clone MEL-14, 1:200), CD44 (clone IM7, 1:200), CD25 (clone PC61.5, 1:200), IL-17A (clone eBio17B7, 1:200), IFN-γ (clone XMG1.2, 1:200), FoxP3 (clone FJK-16s, 1:200), CD184 (clone 2B11/CXCR4, 1:100), CD152 (clone BNI3 1:100) and CD357 (clone DTA-1 1:100) were from eBioscience, CD3 (clone 145-2C11, 1:200) was from Biolegend and TGFBI (1:100) were from proteintech. For Dleu2-17aa expression detection, C57BL/6 mice were sacrificed, and their spleens were removed and gently dissociated into single-cell suspensions. An Fc blocker was used to reduce potential nonspecific antibody staining caused by IgG. Surface staining was performed using monoclonal antibodies against CD45 (clone 30-F11), CD3 (clone 145-2C11), CD19 (clone SJ25C1), CD11c (clone N418), MHCII (clone M5/114.15.2), F4/80 (clone BM8) all at a dilution of 1:200 (from Biolengend) followed by fixation and permeabilization of the nuclear membrane BD Cytofix/Cytoperm (BD Biosciences). […]

Jurkat cells = experiment: Uptake of FAM-labeled peptide, flow cytometry; format: cell-based, human; settings: 6-FAM conjugate, 10 μM, n = 3
Protocol: (§1) Figure EV1 Dleu2-17aa enters CD4^+ T cells. (A) Representative histogram of Dleu2-17aa (10 μM) uptake in Jurkat and EL4 cell lines (n = 3). (B) Flow cytometry plots showing FAM-Dleu2-17aa^+ cells gated on CD4^+ T cells after treatment with increasing concentrations of FAM-Dleu2-17aa for 72 h (n = 3). (C) Histograms showing fluorescence intensity of FAM-Dleu2-17aa in CD4^+ T cells after treatment with increasing concentrations of FAM-Dleu2-17aa for 72 h. Gray filled: untreated control (n = 3). (D) Immunofluorescence imaging of FAM-Dleu2-17aa (10 μM) penetration by CD4^+ T cells isolated from WT mouse spleen (n = 3). Scale bars: 20 μm. Data information: n indicates biological replicate.
(§2) The mouse T cell line EL4 (TIB-39) cells and fibroblast cell line NIH/3T3 (CRL-1658) cells were cultured in high-glucose DMEM (Thermo Fisher Scientific) supplemented with 10% fetal bovine serum (FBS; Gibco). The human T cell line Jurkat (TIB-152) cells were cultured in RPMI 1640 medium (Thermo Fisher Scientific) supplemented with 10% FBS. All lines were maintained at 37 °C in a humidified 5% CO2 atmosphere.

EL4 cells = experiment: Uptake of FAM-labeled peptide, flow cytometry; format: cell-based, mouse; settings: 6-FAM conjugate, 10 μM, n = 3
Protocol: as §1, §2

CD4+ T cells [1] = experiment: Uptake of FAM-labeled peptide, flow cytometry; format: cell-based; settings: 6-FAM conjugate, 72 h, mouse CD4+ T cells, n = 3
Protocol: as §1

CD4+ T cells [2] = experiment: Subcellular distribution by confocal immunofluorescence microscopy; format: cell-based; settings: 6-FAM conjugate, 10 μM, 4 h, mouse CD4+ T cells, n = 3
Protocol: as §1
Mouse CD4^+ T cells and EL4 cells were seeded on glass coverslips and incubated with FAM-Dleu2-17aa (10 µM) for 4 h. Cultured cells were washed three times in PBS and fixed with 4% PFA for 10 min at RT, then incubated in Blocking Buffer (1 × PBS/5% BSA/0.3% Triton X-100) for 1 h. After being washed in PBS and air drying, the coverslips were mounted with DAPI (1:1000; Thermo Fisher Scientific). Images were acquired with Leica TCS SP8 laser scanning confocal microscope.

spinal cord of EAE mice = experiment: Immunostaining of spinal cord sections of treated EAE mice; format: in vivo, mouse
Excerpt: We then analyzed the T cell subsets in the CNS of WT and KO mice after EAE induction to clarify the inflammatory responses. […] To investigate if Dleu2-17aa affects CNS pathology in EAE, we performed immunostaining of spinal cord sections on EAE mice treated with Dleu2-17aa or scrPEP. […] Neuronal staining was also unaffected by Dleu2-17aa, indicating no significant alterations in CNS inflammation.
DAPI Dleu2-17aa CD4 DAPI Dleu2-17aa Iba1 DAPI Dleu2-17aa GFAP DAPI Dleu2-17aa NeuN
Appendix Fig S7: Effects of Dleu2-17aa on CNS pathology.
Representative immunofluorescence images showing Dleu2-17aa and CD4+ T cells (CD4),
microglia (Iba1), astrocyte (GFAP), and neuron (NeuN) staining in spinal cords of WT and KO EAE […]

| penetration of the peptide (CD4+ T cells [1]; 0-50 μM) | concentration of maximal penetration (CD4+ T cells [1]) | subcellular distribution (CD4+ T cells [2]) | colocalization with astrocytes (spinal cord of EAE mice) | colocalization with microglia (spinal cord of EAE mice) | colocalization with neurons (spinal cord of EAE mice) | presence in CD4+ T cells of spinal cord (spinal cord of EAE mice) | Sequence | significance of CD4+Foxp3+ (%) vs PBS (naive CD4+ T cells; two-tailed Student's t-test) | effect on mouse iTreg cell differentiation (naive CD4+ T cells; vs PBS) | penetrating ability (Jurkat cells) | penetrating ability (EL4 cells) |
| --- | --- | --- | --- | --- | --- | --- | --- | --- | --- | --- | --- |
|  |  |  |  |  |  |  | MGRGALRRGRGRARRRGPRRGGTPG [DLEU2-25aa, 25 amino acid micropeptide of human DLEU2 transcripts] | ✱✱ (**P<0.01) | exhibited similar features in promoting mouse iTreg cell differentiation |  |  |
| dose-dependent penetration | 25 to 50 µM | predominantly localized in the nucleus | limited colocalization | some colocalization | minimal colocalization | expressed in all the CD4^+ T cell | MLGRRARRRGRGRRRPA [Dleu2-17aa] |  |  | capacity to penetrate into different types of T cells | capacity to penetrate into different types of T cells |

Reference: paper PMC10933344, “A lncRNA Dleu2-encoded peptide relieves autoimmunity by facilitating Smad3-mediated Treg induction” (EMBO Reports, 2024)
